From ChEMBL document CHEMBL3997794, “Design and synthesis of benzodiazepine analogs as isoform-selective human lysine deacetylase inhibitors” (Eur J Med Chem, 2017) come the findings set out here.

pIC50: −log10 of the molar value.

The target in assay [1] is T1, Histone deacetylase 8 (Homo sapiens) (UniProt Q9BY41).
T1 sequence (whole entry): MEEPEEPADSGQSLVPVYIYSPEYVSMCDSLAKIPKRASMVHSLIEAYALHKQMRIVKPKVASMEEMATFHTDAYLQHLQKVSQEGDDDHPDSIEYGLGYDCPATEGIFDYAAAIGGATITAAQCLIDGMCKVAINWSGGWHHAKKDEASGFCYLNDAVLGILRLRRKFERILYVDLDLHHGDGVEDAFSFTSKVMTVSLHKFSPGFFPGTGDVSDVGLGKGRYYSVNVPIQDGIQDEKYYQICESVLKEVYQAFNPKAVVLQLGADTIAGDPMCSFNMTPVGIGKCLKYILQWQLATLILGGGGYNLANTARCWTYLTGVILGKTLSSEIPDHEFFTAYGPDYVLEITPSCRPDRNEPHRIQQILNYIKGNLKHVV
As to the kind of experiment: Inhibition of human KDAC8 at 30 uM after 60 mins by fluorescence assay relative to control.

In assay [2] the target is T2, Histone deacetylase 3 (Homo sapiens, UniProt O15379). As to the kind of experiment: Inhibition of human KDAC3 using FITC-labeled p53 acetylated peptide as substrate after 60 mins by fluorescence assay.
The target in assay [3] is T3, Histone deacetylase 1 (Homo sapiens, UniProt Q13547). The assay is described as follows: Inhibition of human KDAC1 at 30 uM using substrate A after 60 mins by fluorescence assay relative to control.
A further assay addresses T4, Histone deacetylase 8 (Homo sapiens, UniProt Q9BY41).
T4 sequence (Q9BY41 whole entry): T1 sequence (whole entry)
The assay is described as follows: Inhibition of human KDAC8 after 60 mins by fluorescence assay.

In assay [4] the target is T5, Protein deacetylase HDAC6 (Homo sapiens, UniProt Q9UBN7).
T5 sequence (Q9UBN7 whole entry): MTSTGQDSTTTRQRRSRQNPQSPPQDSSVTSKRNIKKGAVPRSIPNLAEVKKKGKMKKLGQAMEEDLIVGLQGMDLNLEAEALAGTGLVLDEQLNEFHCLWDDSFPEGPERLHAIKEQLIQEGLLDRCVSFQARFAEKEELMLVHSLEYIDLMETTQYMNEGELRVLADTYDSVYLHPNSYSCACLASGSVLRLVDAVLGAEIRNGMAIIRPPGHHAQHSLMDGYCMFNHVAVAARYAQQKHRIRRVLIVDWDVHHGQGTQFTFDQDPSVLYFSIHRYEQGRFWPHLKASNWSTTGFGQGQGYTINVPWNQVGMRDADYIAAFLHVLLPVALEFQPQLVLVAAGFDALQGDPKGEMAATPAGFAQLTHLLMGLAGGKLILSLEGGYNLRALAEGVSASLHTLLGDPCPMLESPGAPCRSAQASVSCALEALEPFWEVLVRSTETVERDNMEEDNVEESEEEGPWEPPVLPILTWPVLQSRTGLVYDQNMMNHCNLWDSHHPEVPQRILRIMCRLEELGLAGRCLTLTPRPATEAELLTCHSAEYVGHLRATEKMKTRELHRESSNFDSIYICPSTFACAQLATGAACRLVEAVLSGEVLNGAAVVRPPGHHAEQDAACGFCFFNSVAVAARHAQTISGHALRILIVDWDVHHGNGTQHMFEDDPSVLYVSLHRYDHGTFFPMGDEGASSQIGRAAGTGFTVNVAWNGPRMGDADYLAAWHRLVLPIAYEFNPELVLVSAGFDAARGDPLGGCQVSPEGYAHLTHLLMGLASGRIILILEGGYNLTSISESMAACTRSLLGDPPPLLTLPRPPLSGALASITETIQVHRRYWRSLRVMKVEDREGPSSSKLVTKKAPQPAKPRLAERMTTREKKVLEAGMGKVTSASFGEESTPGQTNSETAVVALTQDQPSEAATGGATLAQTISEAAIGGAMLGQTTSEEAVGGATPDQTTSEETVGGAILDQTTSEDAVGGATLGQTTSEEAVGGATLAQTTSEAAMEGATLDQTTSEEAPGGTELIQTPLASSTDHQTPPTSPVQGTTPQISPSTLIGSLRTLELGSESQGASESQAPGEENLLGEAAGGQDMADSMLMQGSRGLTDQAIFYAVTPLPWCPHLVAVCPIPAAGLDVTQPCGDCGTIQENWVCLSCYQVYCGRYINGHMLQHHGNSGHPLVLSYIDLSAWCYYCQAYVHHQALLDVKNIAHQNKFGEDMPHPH
The assay is described as follows: Inhibition of human KDAC6 using FITC-labeled histone H4 acetylated peptide as substrate after 60 mins by fluorescence assay.

Assay [5] deals with T6, Protein deacetylase HDAC6 (Homo sapiens) (UniProt Q9UBN7).
T6 sequence (whole entry): T5 sequence (Q9UBN7 whole entry)
The conditions noted are these: at 30 µM.
Description: Inhibition of human KDAC6 at 30 uM using FITC-labeled histone H4 acetylated peptide as substrate after 60 mins by fluorescence assay relative to control

The target in assay [6] is T2, Histone deacetylase 3. As to the kind of experiment: Inhibition of human KDAC3 at 30 uM using FITC-labeled p53 acetylated peptide as substrate after 60 mins by fluorescence assay relative to control.
Assay [7] addresses T3, Histone deacetylase 1. The assay is described as follows: Inhibition of human KDAC1 using substrate A after 60 mins by fluorescence assay.

T2 sequence (O15379 whole entry): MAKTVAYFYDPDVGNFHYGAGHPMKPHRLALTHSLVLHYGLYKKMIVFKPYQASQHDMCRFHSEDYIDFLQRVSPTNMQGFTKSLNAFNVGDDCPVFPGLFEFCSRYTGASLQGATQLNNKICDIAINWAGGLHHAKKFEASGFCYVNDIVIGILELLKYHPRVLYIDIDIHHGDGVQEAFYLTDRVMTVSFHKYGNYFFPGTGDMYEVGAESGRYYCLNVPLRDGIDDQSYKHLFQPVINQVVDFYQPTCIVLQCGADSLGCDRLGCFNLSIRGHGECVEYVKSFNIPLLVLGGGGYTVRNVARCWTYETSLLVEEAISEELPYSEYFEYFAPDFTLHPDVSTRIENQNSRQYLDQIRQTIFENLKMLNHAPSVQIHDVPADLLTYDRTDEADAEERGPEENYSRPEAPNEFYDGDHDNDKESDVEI
T3 sequence (Q13547 whole entry): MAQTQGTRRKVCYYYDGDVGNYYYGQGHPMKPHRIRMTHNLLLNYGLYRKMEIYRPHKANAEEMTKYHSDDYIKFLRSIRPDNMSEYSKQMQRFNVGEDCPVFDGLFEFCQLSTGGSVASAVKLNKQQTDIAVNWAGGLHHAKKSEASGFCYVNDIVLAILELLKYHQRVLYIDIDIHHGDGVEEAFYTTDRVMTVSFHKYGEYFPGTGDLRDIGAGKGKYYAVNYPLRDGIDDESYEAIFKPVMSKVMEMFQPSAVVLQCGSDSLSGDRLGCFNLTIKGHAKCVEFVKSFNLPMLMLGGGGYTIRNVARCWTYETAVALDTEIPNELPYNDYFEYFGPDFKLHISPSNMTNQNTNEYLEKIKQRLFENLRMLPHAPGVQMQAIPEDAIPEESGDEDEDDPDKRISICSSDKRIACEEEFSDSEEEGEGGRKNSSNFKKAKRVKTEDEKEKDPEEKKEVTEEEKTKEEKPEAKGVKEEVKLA

For `COC(=O)CCCCN1C(=O)[C@H](CC(=O)OC(C)(C)C)N=C(c2ccccc2)c2ccccc21`, the inhibition (in general, the drop in the measured response relative to a control, in per cent) in assay [1] worked out at 0%; against Histone deacetylase 1 [3] it was 3.65%; in assay [5], 0%; against Histone deacetylase 3 [6] it was 0%. The pIC50 (against Histone deacetylase 3 [2]; at Histone deacetylase 8; in assay [4]; on Histone deacetylase 1 [7]) was below 4.52 in each case.

On to `O=C(O)CCCCN1C(=O)[C@H](CC(=O)O)N=C(c2ccccc2)c2ccccc21`, for which the inhibition in assay [1] was found to be 0%; on Histone deacetylase 1 [3], 0%; in assay [5], 0%; at Histone deacetylase 3 [6], 1.93%. For the same compound, the pIC50 (against Histone deacetylase 3 [2]; at Histone deacetylase 8; in assay [4]; at Histone deacetylase 1 [7]) was below 4.52 throughout.

Turning to `O=C(CC[C@@H]1N=C(c2ccccc2)c2ccccc2NC1=O)NC(c1ccccc1)(c1ccccc1)c1ccccc1`, the inhibition was found to be 0% in assay [1], 7.59% against Histone deacetylase 1 [3], 0% in assay [5] and 0% on Histone deacetylase 3 [6]. Moreover, the negative logarithm of the IC50 (pIC50) (against Histone deacetylase 3 [2]; on Histone deacetylase 8; in assay [4]; at Histone deacetylase 1 [7]) was below 4.52 throughout.

On to `COC(=O)CCCCN1C(=O)[C@@H](CSC(C)(C)C)N=C(c2ccccc2)c2ccccc21`, for which the inhibition in assay [1] was 0%; against Histone deacetylase 1 [3] it was 3.94%; in assay [5] it was 0%; at Histone deacetylase 3 [6], 0%. Further, the pIC50 (against Histone deacetylase 3 [2]; against Histone deacetylase 8; in assay [4]; on Histone deacetylase 1 [7]) was below 4.52 throughout.

In the case of `COC(=O)CCCCN1C(=O)[C@H](CCSC)N=C(c2ccccc2)c2ccccc21`, the inhibition (in assay [1]; against Histone deacetylase 1 [3]; in assay [5]; at Histone deacetylase 3 [6]) was 0% each time. The negative logarithm of the IC50 (pIC50) (against Histone deacetylase 3 [2]; on Histone deacetylase 8; in assay [4]; against Histone deacetylase 1 [7]) was below 4.52 throughout.

Turning to `CC(C)(C)OC(=O)n1c(C[C@@H]2N=C(c3ccccc3)c3ccccc3N(CCCCC(=O)NO)C2=O)cc2ccccc21`, the inhibition in assay [1] turned out to be 79.7%; against Histone deacetylase 1 [3], 46.9%; in assay [5], 85%; at Histone deacetylase 3 [6], 93.1%. The pIC50 – broadly, the IC50 on a negative log10 scale, so that one unit is a factor of ten – against Histone deacetylase 3 [2] was 5.28; against Histone deacetylase 8 it was 5.08; in assay [4] it was 5.16; on Histone deacetylase 1 [7], below 4.52.

With `COC(=O)CCCCN1C(=O)[C@H](CCC(=O)OC(C)(C)C)N=C(c2ccccc2)c2ccccc21`, the inhibition in assay [1] worked out at 2.88%; at Histone deacetylase 1 [3] it was 2.72%; in assay [5], 0%; at Histone deacetylase 3 [6] it was 0%. For the same compound, the pIC50 (on Histone deacetylase 3 [2]; against Histone deacetylase 8; in assay [4]; on Histone deacetylase 1 [7]) was below 4.52 each time.

Consider `CC(C)(C)SC[C@H]1N=C(c2ccccc2)c2ccccc2NC1=O`, for which the inhibition in assay [1] came out at 16.1%; on Histone deacetylase 1 [3], 4.1%; in assay [5], 2.05%; on Histone deacetylase 3 [6] it was 2.88%. The pIC50 (against Histone deacetylase 3 [2]; at Histone deacetylase 8; in assay [4]; against Histone deacetylase 1 [7]) was below 4.52 in each case.

As for `CC(C)(C)OC(=O)CC[C@H]1N=C(c2ccccc2)c2ccccc2NC1=O`, the inhibition in assay [1] is 4.35%; on Histone deacetylase 1 [3], 10.5%; in assay [5], 4.3%; at Histone deacetylase 3 [6], 3.85%. Besides, the pIC50 (on Histone deacetylase 3 [2]; on Histone deacetylase 8; in assay [4]; at Histone deacetylase 1 [7]) was below 4.52 throughout.

Turning to `CC(C)(C)Oc1ccc(C[C@@H]2N=C(c3ccccc3)c3ccccc3N(CCCCC(=O)NO)C2=O)cc1`, the inhibition in assay [1] was found to be 89.9%; on Histone deacetylase 1 [3], 82%; in assay [5], 92.1%; against Histone deacetylase 3 [6] it was 98.4%. Also, the pIC50 was 6.07 on Histone deacetylase 3 [2], 5.48 against Histone deacetylase 8, 5.54 in assay [4] and 5.21 against Histone deacetylase 1 [7].

Regarding `O=C(C[C@@H]1N=C(c2ccccc2)c2ccccc2NC1=O)NO`, the inhibition was found to be 12.2% in assay [1], 9.99% against Histone deacetylase 1 [3], 0.88% in assay [5] and 0% against Histone deacetylase 3 [6]. Moreover, the pIC50 (at Histone deacetylase 3 [2]; on Histone deacetylase 8; in assay [4]; against Histone deacetylase 1 [7]) was below 4.52 each time.

As to `CSCC[C@@H]1N=C(c2ccccc2)c2ccccc2N(CCCCC(=O)O)C1=O`, the inhibition in assay [1] was determined as 2.75%; against Histone deacetylase 1 [3] it was 4.46%; in assay [5], 0%; on Histone deacetylase 3 [6] it was 0%. The negative-log IC50 (pIC50) (against Histone deacetylase 3 [2]; against Histone deacetylase 8; in assay [4]; at Histone deacetylase 1 [7]) was below 4.52 in each case.

As to `CC[C@H](C)[C@@H]1N=C(c2ccccc2)c2ccccc2N(CCCCC(=O)OC)C1=O`, the inhibition stood at 2.38% in assay [1], 2.83% on Histone deacetylase 1 [3], 0% in assay [5] and 0% against Histone deacetylase 3 [6]. Further, the pIC50 (against Histone deacetylase 3 [2]; against Histone deacetylase 8; in assay [4]; against Histone deacetylase 1 [7]) was below 4.52 in each case.

Consider `O=C1Nc2ccccc2C(c2ccccc2)=N[C@H]1Cc1cn(C(c2ccccc2)(c2ccccc2)c2ccccc2)cn1`, for which the inhibition is 13.4% in assay [1], 8.26% at Histone deacetylase 1 [3], 12.3% in assay [5] and 0% against Histone deacetylase 3 [6]. The pIC50 (on Histone deacetylase 3 [2]; on Histone deacetylase 8; in assay [4]; against Histone deacetylase 1 [7]) was below 4.52 each time.

For the compound `CC[C@@H](C)[C@@H]1N=C(c2ccccc2)c2ccccc2N(CCCCC(=O)NO)C1=O`, the inhibition came out at 33.1% in assay [1], 75.1% against Histone deacetylase 1 [3], 90.9% in assay [5] and 96.4% at Histone deacetylase 3 [6]. Further, the pIC50 at Histone deacetylase 3 [2] was 5.99; at Histone deacetylase 8, below 4.52; in assay [4], 5.43; against Histone deacetylase 1 [7] it was 4.96.

Regarding `CC(C)(C)OC(=O)NCCCC[C@@H]1N=C(c2ccccc2)c2ccccc2N(CCCCC(=O)NO)C1=O`, the inhibition amounted to 56% in assay [1], 84.4% on Histone deacetylase 1 [3], 89.9% in assay [5] and 98.8% on Histone deacetylase 3 [6]. The pIC50 was 6.23 on Histone deacetylase 3 [2], 4.66 at Histone deacetylase 8, 5.51 in assay [4] and 5.33 on Histone deacetylase 1 [7].

As for `O=C(O)CCCCN1C(=O)CN=C(c2ccccc2)c2ccccc21`, the inhibition was 4.33% in assay [1], 6.45% on Histone deacetylase 1 [3], 0% in assay [5] and 0% at Histone deacetylase 3 [6]. In addition, the pIC50 (against Histone deacetylase 3 [2]; against Histone deacetylase 8; in assay [4]; against Histone deacetylase 1 [7]) was below 4.52 throughout.

Turning to `CC(C)(C)OC(=O)n1c(C[C@@H]2N=C(c3ccccc3)c3ccccc3N(CCCCC(=O)O)C2=O)cc2ccccc21`, the inhibition is 23.2% in assay [1], 11.3% on Histone deacetylase 1 [3], 7.4% in assay [5] and 0.79% at Histone deacetylase 3 [6]. The pIC50 (at Histone deacetylase 3 [2]; against Histone deacetylase 8; in assay [4]; on Histone deacetylase 1 [7]) was below 4.52 throughout.
